The record followed here is patent publication US12703885B2, “Method for predicting the response to CDK4/6 inhibitor therapy in cancer patients” (GBG FORSCHUNGS GMBH, priority 2021, dated 2026).

The assay concerns HR+, HER2− eBC at high risk of recurrence. The experiment in a line: PENELOPE-B randomized, double-blind, placebo-controlled Phase 3 study; Cox regression for endpoint iDFS. The assay is classed as in vivo, human. The text has this: The data underlying the present invention were obtained in the context of the PENELOPE^B study (NCT01864746). PENELOPE^B is a randomized, double-blind, placebo-controlled Phase 3 study comparing one year of palbociclib plus at least five years of standard adjuvant endocrine therapy to placebo plus at least five years of standard adjuvant endocrine therapy in 1,250 women with HR+, HER2− eBC at high risk of recurrence who have residual invasive disease after completing neoadjuvant chemotherapy. Patients in the trial scored 3 or higher (or 2 if there were lymph node metastases at the time of surgery) on the clinical-pathologic stage—estrogen/grade (CPS-EG). The CPS-EG is a validated risk assessment tool combining: clinical stage before neoadjuvant treatment, pathological stage after neoadjuvant treatment, grading and estrogen-receptor status. More than 190 clinical sites in 12 countries around the globe participated in PENELOPE-B. The study opened in November 2013 and closed recruitment on Dec. 31, 2017. RNA was extracted from post-surgical residual tumor tissue of patients from the Penelope^B study (GBG 78) and quantified using the HTG EdgeSeq Oncology Biomarker Panel (HTG Molecular Diagnostics Inc.) resulting in a so-called count value for each of the 2559 genes in the assay. Quality control measures were performed as described by the manufacturer. For 906 patients HTG measurements were successfully performed and passed said quality controls. […] Each regression model was calculated based on 906 patients from the Penelope^B study. […] The 20 genes with smallest p-values for the interaction were selected. • 2) For each gene from step 1) the technical eligibility for measurement was evaluated. […] In the cohort of 782 patients the gene expression value was adjusted to the lower limit for between 0 and 16 patients, and to the upper limit for between 0 and 8 patients. • 4) The correlation between genes was analyzed by hierarchical clustering and analysis of the Pearson correlation coefficient matrix based on graphical methods. […]

Molecules are shown by their SMILES.

For `CC(=O)c1c(C)c2cnc(Nc3ccc(N4CCNCC4)cn3)nc2n(C2CCCC2)c1=O` [palbociclib], the “HR for iDFS, palbociclib vs. placebo (95% CI)” value (overall population, n=906, plus standard adjuvant endocrine therapy, no significant difference between arms) is 0.89 (0.69-1.16). For the same molecule, the “HR (95% CI), arm (palbociclib vs placebo), iDFS” value is, setting by setting: (subgroup score3dich high (above median of average of PIAS2, MAP2K6, DSG3, ABCC12, IFT52 expression)) 0.54 (0.37-0.79); (subgroup score3dich low (below median of average of PIAS2, MAP2K6, DSG3, ABCC12, IFT52 expression)) 1.45 (1.00-2.09).
